The test system of test [1] is COLO 205. Nature of the test: Cytotoxicity against human COLO205 cells. The class given is functional, cell-based.
Test [2] deals with BXPC-3. Nature of the test: Cytotoxicity against human BxPC3 cells. In kind it is functional, cell-based.
The subject of test [3] is A2780. Nature of the test: Cytotoxicity against human A2780 cells. In kind it is functional, cell-based.
The subject of test [4] is COLO 205. As to the kind of experiment: Cytotoxicity against human COLO205 cells relative to chromomycin A3. To be noted: pooled result: one value given for 4 cell lines, strains, targets or settings. The class given is functional.
Test [5] has as its system A549. Nature of the test: Cytotoxicity against human A549 cells. The class given is functional, cell-based.
In test [6] the test system is NIH3T3. Nature of the test: Cytotoxicity against mouse NIH/3T3 cells. In kind it is cell-based.
In test [7] the test system is COLO 205. As to the kind of experiment: Ratio of IC50 for chromomycin to compound for human COLO205 cells. The class given is functional.
Test [8] deals with A2780. Nature of the test: Ratio of IC50 for chromomycin to compound for human A2780 cells. In kind it is functional.

One may read the IC50 as the concentration that gives 50% inhibition. Lower therefore signals greater potency in that assay.

As to `CO[C@H]1[C@H](O)C[C@@H](O[C@@H]2C[C@H](Oc3cc4cc5c(c(O)c4c(O)c3C)C(=O)[C@@H](O[C@H]3C[C@H](O[C@H]4C[C@H](O[C@H]6C[C@@](C)(O)[C@@H](OC(C)=O)[C@H](C)O6)[C@H](O)[C@@H](C)O4)[C@H](O)[C@@H](C)O3)[C@H]([C@H](OC)C(=O)[C@@H](O)[C@@H](C)OC(C)=O)C5)O[C@H](C)[C@H]2OC(C)=O)O[C@@H]1C`, the IC50 stood at 65 nM in test [1]; 450 nM in test [2]; 250 nM in test [3]; 200 nM in test [5]; 800 nM in test [6]. Also, the “Ratio IC50” value in test [4] is given as 0.34.
With `CO[C@@H]1[C@H](O)C[C@@H](O[C@@H]2C[C@H](Oc3cc4cc5c(c(O)c4c(O)c3C)C(=O)[C@@H](O[C@H]3C[C@@H](O[C@H]4C[C@@H](O[C@H]6C[C@](C)(O)[C@@H](OC(C)=O)[C@H](C)O6)[C@H](O)[C@@H](C)O4)[C@H](O)[C@@H](C)O3)[C@H]([C@H](OC)C(=O)[C@@H](O)[C@@H](C)O)C5)O[C@H](C)[C@@H]2OC(C)=O)O[C@@H]1C` [CHROMOMYCIN A3], the IC50 in test [1] was 63 nM; in test [2] it was 130 nM; in test [3], 40 nM; in test [5] it was 100 nM; in test [6], 1000 nM.
As for `CCCCCCCCCC(=O)O[C@H](C)[C@H](O)C(=O)[C@@H](OC)[C@@H]1Cc2cc3cc(O[C@H]4C[C@@H](O[C@@H]5C[C@@H](O)[C@H](OC)[C@@H](C)O5)[C@H](OC(C)=O)[C@@H](C)O4)c(C)c(O)c3c(O)c2C(=O)[C@H]1O[C@H]1C[C@H](O[C@H]2C[C@H](O[C@H]3C[C@@](C)(O)[C@@H](OC(C)=O)[C@H](C)O3)[C@H](O)[C@@H](C)O2)[C@H](O)[C@@H](C)O1`, the IC50 is 250 nM in test [1]; 800 nM in test [2]; 375 nM in test [3]; 500 nM in test [5]; 1000 nM in test [6]. Besides, the “Ratio IC50” value in test [4] was determined as 0.17.
`CCC(=O)O[C@H](C)[C@H](O)C(=O)[C@@H](OC)[C@@H]1Cc2cc3cc(O[C@H]4C[C@@H](O[C@@H]5C[C@@H](O)[C@H](OC)[C@@H](C)O5)[C@H](OC(C)=O)[C@@H](C)O4)c(C)c(O)c3c(O)c2C(=O)[C@H]1O[C@H]1C[C@H](O[C@H]2C[C@H](O[C@H]3C[C@@](C)(O)[C@@H](OC(C)=O)[C@H](C)O3)[C@H](O)[C@@H](C)O2)[C@H](O)[C@@H](C)O1`: the IC50 in test [1] came to 125 nM; in test [2], 300 nM; in test [3], 250 nM; in test [5] it was 500 nM; in test [6] it was 1000 nM. Further, the “Ratio IC50” value in test [4] was found to be 0.28.
In the case of `CCCC(=O)O[C@H](C)[C@H](O)C(=O)[C@@H](OC)[C@@H]1Cc2cc3cc(O[C@H]4C[C@@H](O[C@@H]5C[C@@H](O)[C@H](OC)[C@@H](C)O5)[C@H](OC(C)=O)[C@@H](C)O4)c(C)c(O)c3c(O)c2C(=O)[C@H]1O[C@H]1C[C@H](O[C@H]2C[C@H](O[C@H]3C[C@@](C)(O)[C@@H](OC(C)=O)[C@H](C)O3)[C@H](O)[C@@H](C)O2)[C@H](O)[C@@H](C)O1`, the IC50 came to 35 nM in test [1]; 450 nM in test [2]; 65 nM in test [3]; 185 nM in test [5]; 750 nM in test [6]. Further, the “Ratio IC50” value in test [4] was 0.45.
In the case of `C=COC(=O)CCCCC(=O)O[C@H](C)[C@H](O)C(=O)[C@@H](OC)[C@@H]1Cc2cc3cc(O[C@H]4C[C@@H](O[C@@H]5C[C@@H](O)[C@H](OC)[C@@H](C)O5)[C@H](OC(C)=O)[C@@H](C)O4)c(C)c(O)c3c(O)c2C(=O)[C@H]1O[C@H]1C[C@H](O[C@H]2C[C@H](O[C@H]3C[C@@](C)(O)[C@@H](OC(C)=O)[C@H](C)O3)[C@H](O)[C@@H](C)O2)[C@H](O)[C@@H](C)O1`, the IC50 stood at 12 nM in test [1]; 60 nM in test [2]; 5 nM in test [3]; 30 nM in test [5]; 1200 nM in test [6]. Also, the “Ratio IC50” value in test [7] is listed as 8; in test [4], 3.2; in test [8], 5.

Values taken from ChEMBL document CHEMBL2040769, “Lipase-catalyzed preparation of chromomycin A₃ analogues and biological evaluation for anticancer activity” (Bioorg Med Chem Lett, 2012).
